SMILES strings stand for the structures. pIC50: −log10 of the molar value. Where two headings read alike, the source gives them in different places. A value given as a limit tells only on which side of the number the result lay.

Consider nine molecules from patent publication US12492188B2, “1H-benzo[D]imidazole derivatives as TLR9 inhibitors for the treatment of fibrosis” (BRISTOL-MYERS SQUIBB COMPANY, priority 2020, dated 2025).

Format in all cases: cell-based
One experiment deals with T1, human TLR9 (Homo sapiens, UniProt Q9NR96).
T1 construct: host or cells: HEK-Blue cells (HEK293-derived reporter line)
T1 sequence (Q9NR96 26-1032): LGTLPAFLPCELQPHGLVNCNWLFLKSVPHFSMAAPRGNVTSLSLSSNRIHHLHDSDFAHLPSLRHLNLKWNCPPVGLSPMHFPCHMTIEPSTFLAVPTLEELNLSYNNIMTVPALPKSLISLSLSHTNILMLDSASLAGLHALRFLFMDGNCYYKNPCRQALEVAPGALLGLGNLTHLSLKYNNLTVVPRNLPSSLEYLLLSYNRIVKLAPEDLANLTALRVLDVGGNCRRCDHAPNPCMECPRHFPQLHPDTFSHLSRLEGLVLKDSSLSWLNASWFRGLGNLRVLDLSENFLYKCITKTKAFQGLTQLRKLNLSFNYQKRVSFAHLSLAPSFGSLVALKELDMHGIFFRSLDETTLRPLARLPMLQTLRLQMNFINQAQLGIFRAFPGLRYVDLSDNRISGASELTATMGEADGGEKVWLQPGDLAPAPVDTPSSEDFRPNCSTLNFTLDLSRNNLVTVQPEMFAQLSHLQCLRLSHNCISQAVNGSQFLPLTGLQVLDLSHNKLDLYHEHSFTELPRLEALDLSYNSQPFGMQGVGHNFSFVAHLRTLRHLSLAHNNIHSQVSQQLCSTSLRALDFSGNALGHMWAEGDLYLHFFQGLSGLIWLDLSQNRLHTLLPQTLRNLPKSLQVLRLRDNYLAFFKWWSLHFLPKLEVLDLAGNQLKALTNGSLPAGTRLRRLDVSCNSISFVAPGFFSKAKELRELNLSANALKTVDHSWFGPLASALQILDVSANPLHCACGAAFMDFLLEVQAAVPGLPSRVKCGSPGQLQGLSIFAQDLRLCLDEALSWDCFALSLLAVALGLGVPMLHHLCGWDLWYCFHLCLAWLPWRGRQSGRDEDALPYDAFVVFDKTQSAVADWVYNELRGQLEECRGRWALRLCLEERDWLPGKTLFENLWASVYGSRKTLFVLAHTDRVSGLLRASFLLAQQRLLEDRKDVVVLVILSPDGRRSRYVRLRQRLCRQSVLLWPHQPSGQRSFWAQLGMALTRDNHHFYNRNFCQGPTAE
The experiment can be described thus: TLR9 inhibition reporter assay (HEK-Blue cells, secreted embryonic alkaline phosphatase reporter). The method, boiled down:
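HEK-Blue cells expressing human TLR7, TLR8 or TLR9 with an NF-κB/AP-1-driven SEAP reporter were pretreated with compound (0.05 nM–50 μM final) for 30 min at room temperature. Agonists were gardiquimod 7.5 μM for TLR7, R848 15.9 μM for TLR8 and ODN2006 5 nM for TLR9. SEAP was read after 22 h at 37 °C, and inhibition was calculated relative to agonist-plus-DMSO and known-inhibitor controls.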
In general terms: A reporter such as luciferase makes a cellular process visible.

Another experiment concerns the target T2, human TLR7 (Homo sapiens, UniProt Q9NYK1).
T2 construct: host or cells: HEK-Blue cells (HEK293-derived reporter line)
T2 sequence (Q9NYK1 27-1049): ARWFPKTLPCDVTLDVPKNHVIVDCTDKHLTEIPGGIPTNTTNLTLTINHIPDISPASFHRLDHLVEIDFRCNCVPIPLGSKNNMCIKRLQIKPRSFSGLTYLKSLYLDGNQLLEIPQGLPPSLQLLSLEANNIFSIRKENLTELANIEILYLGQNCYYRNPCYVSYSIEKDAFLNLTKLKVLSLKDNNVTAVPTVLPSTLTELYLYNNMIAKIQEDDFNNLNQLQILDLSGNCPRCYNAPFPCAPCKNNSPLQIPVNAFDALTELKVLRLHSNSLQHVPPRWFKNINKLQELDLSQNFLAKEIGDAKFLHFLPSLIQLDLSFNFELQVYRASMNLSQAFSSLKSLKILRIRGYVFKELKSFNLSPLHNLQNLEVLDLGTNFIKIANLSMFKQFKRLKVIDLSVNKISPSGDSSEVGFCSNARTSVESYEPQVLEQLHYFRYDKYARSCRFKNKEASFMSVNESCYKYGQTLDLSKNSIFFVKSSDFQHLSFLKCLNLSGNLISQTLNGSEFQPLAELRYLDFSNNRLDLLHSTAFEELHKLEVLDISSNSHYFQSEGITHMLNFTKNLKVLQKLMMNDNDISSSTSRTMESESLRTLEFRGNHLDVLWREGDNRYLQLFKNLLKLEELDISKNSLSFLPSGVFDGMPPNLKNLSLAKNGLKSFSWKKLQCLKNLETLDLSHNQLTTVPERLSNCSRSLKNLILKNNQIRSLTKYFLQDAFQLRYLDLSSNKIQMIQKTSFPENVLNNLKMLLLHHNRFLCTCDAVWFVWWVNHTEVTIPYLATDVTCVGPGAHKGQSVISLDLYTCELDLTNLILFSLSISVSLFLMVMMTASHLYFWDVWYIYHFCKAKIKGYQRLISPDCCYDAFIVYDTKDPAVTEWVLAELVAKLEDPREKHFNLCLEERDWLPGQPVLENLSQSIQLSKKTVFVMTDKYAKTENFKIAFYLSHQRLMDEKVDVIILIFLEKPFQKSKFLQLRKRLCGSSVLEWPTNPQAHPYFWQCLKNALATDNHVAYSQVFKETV
Briefly: TLR7 inhibition reporter assay (HEK-Blue cells, secreted embryonic alkaline phosphatase reporter). Particulars: HEK-Blue cells overexpressing human TLR7, stimulated with gardiquimod 7.5 μM; read-out: TLR 7 IC50. The procedure: (§1) TLR7/8/9 Inhibition Reporter Assays
(§2) HEK-Blue™-cells (Invivogen) overexpressing human TLR7, TLR8 or TLR9 receptors were used for screening inhibitors of these receptors using an inducible SLAP (secreted embryonic alkaline phosphatase) reporter gene under the control of the […] minimal promoter fused to five NF-κB and AP-1-binding sites. Briefly, cells are seeded into Greiner 384 well plates (15000 cells per well for TLR7, 20,000 for TLR8 and 25,000 for TLR9) and then treated with test compounds in DMSO to yield a final dose response concentration range of 0.05 nM-50 μM. After a 30 minute compound pre-treatment at room temperature, the cells are then stimulated with a TLR7 ligand (gardiquimod at a final concentration of 7.5 μM), TLR8 ligand (R848 at a final concentration of 15.9 μM) or TLR9 ligand (ODN2006 at a final concentration of 5 nM) to activate NF-κB and AP-1 which induce the production of SLAP. After a 22 hour incubation at 37° C., […], SLAP levels are determined with the addition of HEK-Blue™ Detection reagent (Invivogen), a cell culture medium that allows for detection of SLAP, according to manufacturer's specifications. The percent inhibition is determined as the […] in the HEK-Blue signal present in wells treated with agonist plus DMSO alone compared to wells treated with a known inhibitor.

In the next experiment the target is T3, human TLR8 (Homo sapiens, UniProt Q9NR97).
T3 construct: host or cells: HEK-Blue cells (HEK293-derived reporter line)
T3 sequence (Q9NR97 27-1041): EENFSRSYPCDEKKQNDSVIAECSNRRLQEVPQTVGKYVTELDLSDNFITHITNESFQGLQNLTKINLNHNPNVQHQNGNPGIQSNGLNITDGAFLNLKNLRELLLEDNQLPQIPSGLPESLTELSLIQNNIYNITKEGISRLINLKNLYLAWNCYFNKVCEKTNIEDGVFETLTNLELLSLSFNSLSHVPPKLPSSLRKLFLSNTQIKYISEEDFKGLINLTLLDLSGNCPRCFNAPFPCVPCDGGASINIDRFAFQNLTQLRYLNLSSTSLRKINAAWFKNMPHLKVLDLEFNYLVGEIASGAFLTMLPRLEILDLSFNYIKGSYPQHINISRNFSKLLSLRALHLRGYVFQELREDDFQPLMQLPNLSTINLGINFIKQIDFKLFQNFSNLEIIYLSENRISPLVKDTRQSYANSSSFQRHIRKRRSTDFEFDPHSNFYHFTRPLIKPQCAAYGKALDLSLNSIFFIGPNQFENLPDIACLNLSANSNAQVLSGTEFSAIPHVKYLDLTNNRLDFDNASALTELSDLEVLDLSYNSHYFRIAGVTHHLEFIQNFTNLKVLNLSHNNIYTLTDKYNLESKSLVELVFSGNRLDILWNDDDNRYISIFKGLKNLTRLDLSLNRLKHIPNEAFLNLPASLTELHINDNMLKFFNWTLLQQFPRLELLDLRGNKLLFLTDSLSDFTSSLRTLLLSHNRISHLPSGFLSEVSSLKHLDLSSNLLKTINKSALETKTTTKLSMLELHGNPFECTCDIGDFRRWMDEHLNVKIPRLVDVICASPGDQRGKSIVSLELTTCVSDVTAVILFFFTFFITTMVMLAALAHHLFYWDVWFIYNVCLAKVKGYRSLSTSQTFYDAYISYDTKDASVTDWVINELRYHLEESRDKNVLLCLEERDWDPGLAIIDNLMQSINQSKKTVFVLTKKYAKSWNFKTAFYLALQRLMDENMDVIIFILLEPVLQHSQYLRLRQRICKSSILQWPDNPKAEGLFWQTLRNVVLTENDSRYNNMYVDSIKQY
Briefly: TLR8 inhibition reporter assay (HEK-Blue cells, secreted embryonic alkaline phosphatase reporter). As to conditions: HEK-Blue cells overexpressing human TLR8, stimulated with R848 15.9 μM; read-out: TLR 8 IC50. The procedure: as §1, §2

[1] abbreviates: HEK-Blue cells overexpressing human TLR9, stimulated with ODN2006 5 nM, 22 hour incubation, reporter readout.
[2] abbreviates: HEK-Blue cells overexpressing human TLR9, stimulated with ODN2006 5 nM, read-out: TLR 9 IC50.

What is called pIC50 is the IC50 on a negative log10 scale, so that one unit is a factor of ten. Regarding `COc1ccc(-c2nc3c(C)cc(C4C[C@H]5CC[C@@H](C4)N5C4CCN(C(C)C)CC4)cc3n2C)cc1OC` (mixture of isomers) [Example 21, 2-(3,4-dimethoxyphenyl)-6-(8-(1-isopropylpiperidin-4-yl)-8-azabicyclo[3.2.1]octan-3-yl)-1,4-dimethyl-1H-benzo[d]imidazole], the figures for the pIC50 on human TLR9 (setting [1]), at human TLR7 and at human TLR8 were 7.62, 5.59 and less than 4.30, respectively.
Regarding `CCn1c(-c2ccc(OC)c(OC)c2)nc2ccc(C3CCN(C4CCN(C(C)C)CC4)CC3)cc21` (single isomer, unassigned) [Example 8, 2-(3,4-dimethoxyphenyl)-1-ethyl-6-(1′-isopropyl-[1,4′-bipiperidin]-4-yl)-1H-benzo[d]imidazole], the negative logarithm of the IC50 (pIC50) on human TLR9 (setting [1]) is 6.68; at human TLR7, 5.60; at human TLR8 it was less than 4.30.
For the molecule `CCn1c(-c2ccc(OC)c(OC)c2)nc2cc(C3CCN(C4CCN(C(C)C)CC4)CC3)ccc21` (single isomer, unassigned) [Example 9, 2-(3,4-dimethoxyphenyl)-1-ethyl-5-(1′-isopropyl-[1,4′-bipiperidin]-4-yl)-1H-benzo[d]imidazole], the pIC50 against human TLR9 (setting [1]) was 6.60; at human TLR9 (setting [2]) it was 6.60; at human TLR7, 5.57; on human TLR8, 5.89.
With `COc1ccc(-c2nc3c(C)cc(C4CCN(C5CC6CCC(C5)N6CC(C)C)CC4)cc3n2C)cc1OC` (single isomer, unassigned) [Example 17, 2-(3,4-dimethoxyphenyl)-6-(1-(8-isobutyl-8-azabicyclo[3.2.1]octan-3-yl)piperidin-4-yl)-1,4-dimethyl-1H-benzo[d]imidazole], the pIC50 on human TLR9 (setting [1]) is 7.60; at human TLR7, 5.19; at human TLR8, less than 4.30.
For the molecule `COc1ccc(-c2nc3cc(C4CCN(C5CCN(C6CC6)CC5)CC4)ccc3n2C)cc1OC` [Example 35, 5-(1′-cyclopropyl-[1,4′-bipiperidin]-4-yl)-2-(3,4-dimethoxyphenyl)-1-methyl-1H-benzo[d]imidazole], the figures for the negative-log IC50 (pIC50) against human TLR9 (setting [1]), on human TLR9 (setting [2]) and on human TLR8 were 6.07, 6.07 and less than 4.30, respectively.
For `COc1cc(-c2nc3c(C)cc(C4CCN(C5CC6CCC(C5)N6CC(C)C)CC4)cc3n2C)cn2ncnc12` (stereo not drawn) [Example 126, 6-(6-(1-(8-isobutyl-8-azabicyclo[3.2.1]octan-3-yl)piperidin-4-yl)-1,4-dimethyl-1H-benzo[d]imidazol-2-yl)-8-methoxy-[1,2,4]triazolo[1,5-a]pyridine], the values for the negative-log IC50 (pIC50) at human TLR9 (setting [1]), on human TLR9 (setting [2]) and at human TLR8 were 6.23, 6.23 and 5.35, respectively.
Regarding `Cn1c(-c2ccc(S(C)(=O)=O)cc2)nc2ccc(C3CCN(C4CC5CCC(C4)N5C4COC4)CC3)c(F)c21` (stereo not drawn) [Example 272, 7-fluoro-1-methyl-2-(4-(methylsulfonyl)phenyl)-6-(1-(8-(oxetan-3-yl)-8-azabicyclo[3.2.1]octan-3-yl)piperidin-4-yl)-1H-benzo[d]imidazole], the pIC50 at human TLR9 (setting [2]) is 6.22; at human TLR8, less than 4.30.
On to `Cn1c(-c2ccc(S(C)(=O)=O)cc2)nc2c(F)cc(C3CCN(C4CC5CCC(C4)N5C4COC4)CC3)cc21` (stereo not drawn) [Example 287, 4-fluoro-1-methyl-2-(4-(methylsulfonyl)phenyl)-6-(1-(8-(oxetan-3-yl)-8-azabicyclo[3.2.1]octan-3-yl)piperidin-4-yl)-1H-benzo[d]imidazole], for which the pIC50 at human TLR9 (setting [2]) is 6.98; against human TLR9 (HEK-Blue human TLR9 reporter cells) it was 7.00; at human TLR8 it was less than 4.30.
For the molecule `Cc1cc(-c2ccc(CN3CCC(N4CCCC4)CC3)c(F)c2)cc2c1nc(-c1ccc(S(C)(=O)=O)cc1)n2C` [Example 387, 6-(3-fluoro-4-((4-(pyrrolidin-1-yl)piperidin-1-yl)methyl)phenyl)-1,4-dimethyl-2-(4-(methylsulfonyl)phenyl)-1H-benzo[d]imidazole], the figures for the negative logarithm of the IC50 (pIC50) against human TLR9 (setting [1]), on human TLR9 (setting [2]) and on human TLR8 were 7.25, 7.25 and 5.14, respectively.
